This note sets out measurements from ChEMBL document CHEMBL1201862, “PubChem BioAssay data set” (2004).

One experiment concerns Vero. Nature of the experiment: mammalian cell viability reduction – secondary assay, cytotoxicity control for West Nile virus antiviral project, dose response (AID 1650). The note with it: Chlorocebus sabaeus. Type of experiment: functional.
Experiment [1] is described as follows: viability of PTEN-deleted HCT116 cells – cell-based, HCT116 PTEN knockout, dose response (AID 1047).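 Note: HCT116 colon tumor cells with PTEN knocked out; cells exposed to compound for 60 hours before readout; potency for loss of cell viability measured by luminescence.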 Type of experiment: functional.
Experiment [2] can be described thus: viability of HCT116 lacking mutant beta-catenin – cell-based, human colon tumor, dose response (AID 1045).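 Note: HCT116 colon tumor cells with beta catenin knocked out; cells exposed to compound for 60 hours.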 Type of experiment: functional.
The target in experiment [3] is T1, Epstein-Barr nuclear antigen 1 (Epstein-Barr virus (strain B95-8) (HHV-4) (Human herpesvirus 4), UniProt P03211).
T1 sequence (P03211 whole entry): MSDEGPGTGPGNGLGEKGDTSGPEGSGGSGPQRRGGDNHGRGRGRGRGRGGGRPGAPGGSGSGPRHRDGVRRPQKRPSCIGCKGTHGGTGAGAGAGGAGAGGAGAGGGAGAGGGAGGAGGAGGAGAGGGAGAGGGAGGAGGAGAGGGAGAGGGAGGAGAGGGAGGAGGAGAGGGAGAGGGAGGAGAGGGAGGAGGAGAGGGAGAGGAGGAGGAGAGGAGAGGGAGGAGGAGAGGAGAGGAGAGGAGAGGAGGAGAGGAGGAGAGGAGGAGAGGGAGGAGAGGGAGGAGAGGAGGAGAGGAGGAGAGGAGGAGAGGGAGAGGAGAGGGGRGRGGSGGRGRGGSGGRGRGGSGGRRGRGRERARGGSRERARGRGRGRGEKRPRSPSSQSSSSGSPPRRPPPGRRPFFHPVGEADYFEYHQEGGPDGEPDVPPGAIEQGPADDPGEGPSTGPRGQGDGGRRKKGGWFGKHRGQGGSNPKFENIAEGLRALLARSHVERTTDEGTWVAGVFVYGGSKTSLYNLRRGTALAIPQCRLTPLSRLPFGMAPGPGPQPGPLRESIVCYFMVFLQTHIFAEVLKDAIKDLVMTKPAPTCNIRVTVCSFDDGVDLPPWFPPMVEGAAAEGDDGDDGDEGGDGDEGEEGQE
In words: inhibition of EBV nuclear antigen 1 DNA binding – biochemical, fluorescence polarization, 1536-well, dose response (AID 2381).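 Note: fluorescence polarization of a Cy5 DNA probe bound by EBNA-1 protein.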 More on the design: species or system human gammaherpesvirus 4.

The target in experiment [4] is T2, Lytic switch protein BZLF1 (Epstein-Barr virus (strain B95-8) (HHV-4) (Human herpesvirus 4), UniProt P03206).
T2 sequence (P03206 whole entry): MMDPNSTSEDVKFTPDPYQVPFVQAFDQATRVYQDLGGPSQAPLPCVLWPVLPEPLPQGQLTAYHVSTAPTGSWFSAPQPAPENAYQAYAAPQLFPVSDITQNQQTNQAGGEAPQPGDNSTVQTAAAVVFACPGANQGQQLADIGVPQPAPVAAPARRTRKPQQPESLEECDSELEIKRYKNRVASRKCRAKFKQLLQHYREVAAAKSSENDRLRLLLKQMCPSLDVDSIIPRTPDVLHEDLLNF
In words: inhibition of BZLF1 ZTA DNA binding – biochemical, fluorescence polarization, Epstein-Barr virus, 1536-well, counter-screen for EBNA-1 inhibitor project, dose response (AID 2377).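 Note: fluorescence polarization of Cy5-labelled ZRE DNA probe bound by purified Zta.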 More on the design: species or system human gammaherpesvirus 4.

Experiment [5] addresses Luciferin 4-monooxygenase (Photinus pyralis, UniProt P08659). In words: Counter Screen for Luciferase-based Assay Positives. [Related pubchem assays: 620, 618, 411 ].
A further experiment addresses Nonstructural protein 1 (Influenza A virus, UniProt Q194T2). In kind it is functional, Influenza A virus (A/California/07/2009(H1N1)).
A further experiment has as its system HT-1080. Nature of the experiment: HT1080 cell viability loss – fluorescence readout (AID 620). Type of experiment: functional, cell-based. The note with it: Homo sapiens.
For experiment [6], the target named is T3, Microphthalmia-associated transcription factor (Homo sapiens, UniProt O75030).
T3 sequence (O75030 whole entry): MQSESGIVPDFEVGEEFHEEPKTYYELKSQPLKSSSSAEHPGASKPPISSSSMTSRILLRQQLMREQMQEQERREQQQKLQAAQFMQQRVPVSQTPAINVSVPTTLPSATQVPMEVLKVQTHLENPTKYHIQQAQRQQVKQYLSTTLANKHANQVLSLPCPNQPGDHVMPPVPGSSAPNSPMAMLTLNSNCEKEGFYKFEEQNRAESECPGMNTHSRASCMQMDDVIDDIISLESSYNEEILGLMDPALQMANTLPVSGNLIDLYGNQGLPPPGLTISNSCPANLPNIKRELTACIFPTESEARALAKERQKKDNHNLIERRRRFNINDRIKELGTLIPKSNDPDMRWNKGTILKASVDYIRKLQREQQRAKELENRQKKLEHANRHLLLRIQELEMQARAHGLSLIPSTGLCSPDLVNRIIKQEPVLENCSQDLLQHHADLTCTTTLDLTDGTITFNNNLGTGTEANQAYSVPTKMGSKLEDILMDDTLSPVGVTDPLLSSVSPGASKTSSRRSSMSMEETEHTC
In words: reducers of TRPM1 reporter luminescence, concentration series – cell-based, SK-MEL-5, cherry-picked, set 3, MITF inhibitor project, dose response (AID 493073).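 Note: SK-MEL-5 melanoma cells with luciferase driven by the MITF target TRPM1 promoter.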 Type of experiment: functional.

Experiment [7] has as its target T4, Ubiquitin-conjugating enzyme E2 N (Homo sapiens, UniProt P61088).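 Note: Dose-response confirmation in a TR-FRET assay detecting UBC13-driven polyubiquitin chain formation, inhibition measured.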
T4 sequence (P61088 whole entry): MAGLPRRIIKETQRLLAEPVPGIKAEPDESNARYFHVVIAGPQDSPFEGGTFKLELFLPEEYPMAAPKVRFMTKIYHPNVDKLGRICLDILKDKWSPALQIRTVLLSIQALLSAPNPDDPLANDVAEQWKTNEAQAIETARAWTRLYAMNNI
In kind it is functional.

The next experiment concerns the target T5, Estrogen receptor (Homo sapiens, UniProt P03372).
T5 sequence (P03372 whole entry): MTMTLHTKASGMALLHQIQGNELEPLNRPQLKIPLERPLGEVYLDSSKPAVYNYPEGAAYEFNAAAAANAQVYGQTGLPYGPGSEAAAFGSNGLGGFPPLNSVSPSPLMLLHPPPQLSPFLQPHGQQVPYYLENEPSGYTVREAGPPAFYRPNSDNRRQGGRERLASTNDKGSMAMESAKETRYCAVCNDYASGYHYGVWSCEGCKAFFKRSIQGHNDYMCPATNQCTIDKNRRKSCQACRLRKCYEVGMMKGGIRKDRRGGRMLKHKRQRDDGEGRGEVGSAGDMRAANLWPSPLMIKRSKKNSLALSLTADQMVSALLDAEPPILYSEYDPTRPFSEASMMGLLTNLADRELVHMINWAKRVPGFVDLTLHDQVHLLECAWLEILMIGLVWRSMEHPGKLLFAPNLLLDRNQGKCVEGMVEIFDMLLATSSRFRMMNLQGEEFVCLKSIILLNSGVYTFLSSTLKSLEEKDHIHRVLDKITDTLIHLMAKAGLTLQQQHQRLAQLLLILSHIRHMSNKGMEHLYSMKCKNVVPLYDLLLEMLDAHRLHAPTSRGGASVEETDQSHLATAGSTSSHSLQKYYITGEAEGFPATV

A further experiment deals with Estrogen receptor beta (Homo sapiens, UniProt Q92731).
Chain of Estrogen receptor beta (Q92731 whole entry): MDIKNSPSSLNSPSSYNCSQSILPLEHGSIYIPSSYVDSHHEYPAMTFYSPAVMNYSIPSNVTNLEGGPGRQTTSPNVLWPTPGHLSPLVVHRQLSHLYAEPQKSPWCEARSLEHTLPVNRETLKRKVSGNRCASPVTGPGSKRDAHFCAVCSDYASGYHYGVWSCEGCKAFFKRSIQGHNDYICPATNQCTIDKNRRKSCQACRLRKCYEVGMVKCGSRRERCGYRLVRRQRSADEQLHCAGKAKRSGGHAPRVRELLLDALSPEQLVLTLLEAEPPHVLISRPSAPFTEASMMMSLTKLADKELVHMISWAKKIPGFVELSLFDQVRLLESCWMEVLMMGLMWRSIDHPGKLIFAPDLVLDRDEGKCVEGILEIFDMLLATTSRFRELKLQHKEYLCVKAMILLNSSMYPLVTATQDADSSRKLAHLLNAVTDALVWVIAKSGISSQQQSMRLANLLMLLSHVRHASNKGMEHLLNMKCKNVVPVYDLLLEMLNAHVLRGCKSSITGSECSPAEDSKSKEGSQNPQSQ
The target of experiment [8] is T6, Aryl hydrocarbon receptor (Homo sapiens, UniProt P35869).
T6 sequence (P35869 whole entry): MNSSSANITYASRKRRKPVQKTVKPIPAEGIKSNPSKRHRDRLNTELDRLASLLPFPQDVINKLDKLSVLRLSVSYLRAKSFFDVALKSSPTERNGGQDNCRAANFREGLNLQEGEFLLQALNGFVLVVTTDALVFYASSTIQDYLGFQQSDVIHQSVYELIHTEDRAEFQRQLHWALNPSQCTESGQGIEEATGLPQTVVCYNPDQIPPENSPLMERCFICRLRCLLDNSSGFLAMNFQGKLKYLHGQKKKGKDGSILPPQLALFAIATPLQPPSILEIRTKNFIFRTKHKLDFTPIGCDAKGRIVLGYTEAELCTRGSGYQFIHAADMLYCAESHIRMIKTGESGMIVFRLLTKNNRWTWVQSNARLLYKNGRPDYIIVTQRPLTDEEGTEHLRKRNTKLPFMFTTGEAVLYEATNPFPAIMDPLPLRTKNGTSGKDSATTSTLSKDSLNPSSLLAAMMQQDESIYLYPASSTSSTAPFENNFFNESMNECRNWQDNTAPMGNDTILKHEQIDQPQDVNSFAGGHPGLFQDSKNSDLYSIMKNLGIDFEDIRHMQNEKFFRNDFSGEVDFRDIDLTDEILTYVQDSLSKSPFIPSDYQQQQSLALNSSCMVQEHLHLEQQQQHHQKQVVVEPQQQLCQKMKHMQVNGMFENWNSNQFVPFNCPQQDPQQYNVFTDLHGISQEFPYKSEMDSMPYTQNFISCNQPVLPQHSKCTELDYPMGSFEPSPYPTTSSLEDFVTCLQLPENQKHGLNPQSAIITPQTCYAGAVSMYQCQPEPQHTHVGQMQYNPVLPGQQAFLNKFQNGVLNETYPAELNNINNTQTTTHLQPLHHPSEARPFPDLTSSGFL
Nature of the experiment: Luminescence-based cell-based high throughput dose response assay for activators of the Aryl Hydrocarbon Receptor (AHR). [Related pubchem assays: 2796 (Primary screen (AHR activators in singlicate)), 2845 (Confirmation screen (AHR activators in triplicate)), 434939 (Counterscreen (PXR activators in triplicate)), 2804 (Summary (AHR activators))]. In kind it is ADME.

Experiment [9] in a line: blockade of melanocortin 4 receptor signaling – cell-based, plate reader, cherry pick, counter-screen for LGR2 antagonist project, dose response (AID 743444).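 Note: transfected HEK 293 cells stimulated with alpha-MSH peptide; potency of inhibitors of the alpha-MSH evoked signal.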 Type of experiment: functional.
Experiment [10] addresses T7, Heat shock factor protein 1 (Mus musculus, UniProt P38532).
T7 sequence (P38532 whole entry): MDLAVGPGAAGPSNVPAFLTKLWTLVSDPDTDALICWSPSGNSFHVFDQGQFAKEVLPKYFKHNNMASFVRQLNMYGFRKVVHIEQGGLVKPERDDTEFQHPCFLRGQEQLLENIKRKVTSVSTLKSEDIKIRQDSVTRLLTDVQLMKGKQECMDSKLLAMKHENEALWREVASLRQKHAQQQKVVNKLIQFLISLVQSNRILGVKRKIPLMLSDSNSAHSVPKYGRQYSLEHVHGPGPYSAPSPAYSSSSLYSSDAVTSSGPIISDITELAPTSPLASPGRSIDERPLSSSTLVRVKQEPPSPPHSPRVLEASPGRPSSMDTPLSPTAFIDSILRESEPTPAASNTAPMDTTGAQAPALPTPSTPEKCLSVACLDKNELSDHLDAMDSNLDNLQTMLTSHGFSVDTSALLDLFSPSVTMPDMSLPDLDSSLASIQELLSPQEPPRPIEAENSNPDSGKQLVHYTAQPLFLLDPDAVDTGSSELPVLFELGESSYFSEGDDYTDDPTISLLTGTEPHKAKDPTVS
Nature of the experiment: decrease of HSF1-responsive luciferase luminescence – cell-based, NIH3T3, dose retest, confirmation (AID 2382).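 Note: NIH3T3 fibroblasts with HSF1-driven luciferase reporter stressed by proteasome inhibitor MG132; luminescence from HSF1-driven luciferase expression after 8 hours of MG132 stress.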 Type of experiment: functional.

Experiment [11] is described as follows: toxicity toward HepG2 liver cells – cell-based, plate reader, cherry-pick, antagonist series, cytotoxicity control, dose response (AID 743416). Type of experiment: functional.
The nature of experiment [12]: blockers of bursicon-stimulated LGR2 cAMP reporter – cell-based, HEK293, CRE-luciferase reporter, cherry pick, set 2, dose response (AID 743343).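 Note: transfected cells were stimulated with diluted bursicon conditioned medium after compound addition.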 Type of experiment: functional.
A short description of experiment [13]: A549 cell cytotoxicity, dose response, cytotoxicity control, plate reader, cherry-pick, antagonist series (AID 743412). In kind it is functional, cell-based.

Active and inactive are the calls of the source.

Chain of Luciferin 4-monooxygenase (P08659 whole entry): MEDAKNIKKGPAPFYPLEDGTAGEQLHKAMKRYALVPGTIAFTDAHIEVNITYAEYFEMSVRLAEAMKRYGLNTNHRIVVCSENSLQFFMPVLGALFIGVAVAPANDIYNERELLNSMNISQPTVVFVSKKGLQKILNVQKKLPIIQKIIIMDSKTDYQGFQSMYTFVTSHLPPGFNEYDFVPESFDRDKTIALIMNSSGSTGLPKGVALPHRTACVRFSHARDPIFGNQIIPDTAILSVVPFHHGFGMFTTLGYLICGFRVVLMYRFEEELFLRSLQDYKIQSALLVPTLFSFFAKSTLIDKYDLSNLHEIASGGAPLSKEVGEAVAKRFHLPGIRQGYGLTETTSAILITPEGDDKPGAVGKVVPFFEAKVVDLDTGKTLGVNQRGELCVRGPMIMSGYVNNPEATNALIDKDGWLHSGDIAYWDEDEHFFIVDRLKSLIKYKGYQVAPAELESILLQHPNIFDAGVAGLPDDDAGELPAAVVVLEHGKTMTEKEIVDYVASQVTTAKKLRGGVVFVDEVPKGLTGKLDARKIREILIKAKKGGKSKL
Chain of Nonstructural protein 1 (Q194T2 whole entry): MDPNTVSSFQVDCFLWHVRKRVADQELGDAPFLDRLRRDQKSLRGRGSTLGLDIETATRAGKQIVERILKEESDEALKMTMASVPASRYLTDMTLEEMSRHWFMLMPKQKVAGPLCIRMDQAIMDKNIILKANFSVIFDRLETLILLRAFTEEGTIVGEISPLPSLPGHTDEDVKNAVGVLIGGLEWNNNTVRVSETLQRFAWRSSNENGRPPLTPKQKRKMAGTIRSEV

On to `CCCCn1c(=N)n(CC(O)COc2cccc(C)c2)c2ccccc21` (stereo not drawn), for which, in the experiment on Vero, the CC50 was 40.2 µM (active). The concentration for a half-maximal effect (EC50) was 5.56 µM (active) in experiment [1] and 5.24 µM (active) in experiment [2].

As for `O=C(CNC(=O)c1ccc(-c2ccccc2)cc1)OCc1c(F)cccc1Cl`, the concentration for half-maximal inhibition (IC50) is given as 11.7 µM (not active) in experiment [3] and > 111 µM (not active) in experiment [4].

With `O=c1[nH]c(CN2CCN(S(=O)(=O)c3ccc4ccccc4c3)CC2)nc2ccccc12`, the IC50 in [3] is 5.56 µM (active); in [4], > 111 µM (not active).

Turning to `CN(C)c1ccc(NC(=S)c2ccccn2)cc1`, the EC50 in [5] was 520 nM (active); with HT-1080, > 50 µM (not active); in experiment [1] it was 92.2 µM (active); in experiment [2] it was 136 µM (active). Also, the IC50 at Nonstructural protein 1 was 28.3 µM (active). Besides, the AC50 in [6] is 2.84 µM (active).

With `COc1ccc(-n2ncc3c(NC(C)C)ncnc32)cc1`, the figures for the concentration giving a half-maximal response (EC50) (in [5]; in the experiment with HT-1080) were < 200 nM (active) and > 50 µM (not active), respectively.

For `CC1CC(C)CN(CCCNC(=O)C2CCN(c3ncnc4c3sc3cccc(F)c34)CC2)C1` (stereo not drawn), in the experiment on Vero, the 50% cytotoxic concentration (CC50) was > 100 µM (active). Also, the IC50 in experiment [7] was > 20 µM (inactive).

`Cn1c(=O)[nH]c(=O)c2c1nc1n2CCCN1CCc1ccccc1`: the IC50 on Estrogen receptor and against Estrogen receptor beta was > 50 µM (not active) throughout.

Consider `CCc1ccc(NC(=O)C(=O)NCCN2CCN(Cc3ccc([N+](=O)[O-])cc3)CC2)cc1`, for which the CC50 in the experiment with Vero is 37.7 µM (active).

As to `CCN=c1ccc(Br)cc(C(=O)/C=C/c2ccccc2Cl)c1O`, at Estrogen receptor, the half-inhibitory concentration (IC50) is 3.11 µM (active).

Turning to `N#C/C(=C/c1ccccc1)c1nn(CCO)c(N)c1C#N`, the EC50 in experiment [8] is 6.55 µM (active).

On to `COc1ccc(Cl)cc1NC(=O)CN1CCN(S(=O)(=O)c2ccc(F)cc2)CC1`, for which the IC50 in [3] is 16.4 µM (not active); in experiment [4], > 111 µM (not active).

On to `Cc1oc(-c2ccc3c(c2)OCCO3)cc1C(=O)O`, for which the AC50 is 7.49 µM (active) in [9], > 52 µM (inactive) in experiment [11], 7.05 µM (active) in [12] and > 52 µM (inactive) in experiment [13]. In addition, the EC50 in [10] is 312 nM (active); in [5], 1250 nM (active); with HT-1080, > 50 µM (not active).

`C/C(=N\NC(=O)c1c(Br)cnn1C)c1ccc(NC(=O)c2ccc(F)cc2)cc1`: the IC50 is 3.62 µM (active) in experiment [3] and > 111 µM (not active) in experiment [4].
